# According to the supplement of paper PMC11061612:
# Assays:
# Capivasertib = compound: C1CN(CCC1(C(=O)N[C@@H](CCO)C2=CC=C(C=C2)Cl)N)C3=NC=NC4=C3C=CN4 [Capivasertib]; conditions: max 10 µM
# Procedure, shortened: (§1)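 Cancer cell lines were dosed for 72 hours (final DMSO typically 0.2%) after 24 hours at 37°C and 5% CO2 in 1536-well plates containing 7.5 μl DMEM/F12 or RPMI with 10% FBS. Viability came from CellTiter-Glo 2.0 luminescence, scaled between blank-well and DMSO-well means, and dose responses were fitted to a two-parameter logistic curve with a non-linear mixed effects model. The single-agent IC50 was obtained from this fit.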
# AZD1775 = compound: C=CCn1c(=O)c2cnc(Nc3ccc(N4CCN(C)CC4)cc3)nc2n1-c1cccc(C(C)(C)O)n1 [AZD1775]; conditions: max 3 µM
# Procedure, shortened: as §1
# Trametinib = compound: CC(=O)Nc1cccc(-n2c(=O)n(C3CC3)c(=O)c3c(Nc4ccc(I)cc4F)n(C)c(=O)c(C)c32)c1 [Trametinib]; conditions: max 1 µM
# Procedure, shortened: as §1
# Palbociclib = compound: CC(=O)c1c(C)c2cnc(Nc3ccc(N4CCNCC4)cn3)nc2n(C2CCCC2)c1=O [Palbociclib]; conditions: max 10 µM
# Procedure, shortened: as §1
# AZD1390 = compound: CC(C)n1c(=O)n(C)c2cnc3cc(F)c(-c4ccc(OCCCN5CCCCC5)nc4)cc3c21 [AZD1390]; conditions: max 0.3 µM
# Procedure, shortened: as §1
# Venetoclax = compound: CC1(C)CCC(CN2CCN(c3ccc(C(=O)NS(=O)(=O)c4ccc(NCC5CCOCC5)c([N+](=O)[O-])c4)c(Oc4cnc5[nH]ccc5c4)c3)CC2)=C(c2ccc(Cl)cc2)C1 [Venetoclax]; conditions: max 1 µM
# Procedure, shortened: as §1
# Dasatinib = compound: CC1=C(C(=CC=C1)Cl)NC(=O)C2=CN=C(S2)NC3=CC(=NC(=N3)C)N4CCN(CC4)CCO [Dasatinib]; conditions: max 2 µM
# Procedure, shortened: as §1
# SG3199 = compound: CC1=CN2[C@@H](C1)C=NC3=CC(=C(C=C3C2=O)OC)OCCCCCOC4=C(C=C5C(=C4)N=C[C@@H]6CC(=CN6C5=O)C)OC [SG3199]; conditions: max 0.001 µM
# Procedure, shortened: as §1
# AZD2811 = compound: CCN(CCO)CCCOc1ccc2c(Nc3cc(CC(=O)Nc4cccc(F)c4)[nH]n3)ncnc2c1 [AZD2811]; conditions: max 1 µM
# Procedure, shortened: as §1
# SN-38 = compound: CCc1c2c(nc3ccc(O)cc13)-c1cc3c(c(=O)n1C2)COC(=O)[C@]3(O)CC [SN-38]; conditions: max 0.3 µM
# Procedure, shortened: as §1
# AZD0156 = compound: CN(C)CCCOc1ccc(-c2ccc3ncc4c(c3c2)n(C2CCOCC2)c(=O)n4C)cn1 [AZD0156]; conditions: max 3 µM
# Procedure, shortened: as §1
# AZD4320 = compound: CN(CC[C@H](CSC1=CC=CC=C1)NC2=C(C=C(C=C2)S(=O)(=O)NC(=O)C3=CC=C(C=C3)N4CCC(CC4)[C@H](C5=CC=CC=C5C6=CC=C(C=C6)Cl)O)S(=O)(=O)C(F)(F)F)CCO [AZD4320]; conditions: max 1 µM
# Procedure, shortened: as §1
# Alisertib = compound: COc1cc(Nc2ncc3c(n2)-c2ccc(Cl)cc2C(c2c(F)cccc2OC)=NC3)ccc1C(=O)O [Alisertib]; conditions: max 10 µM
# Procedure, shortened: as §1
# Gefitinib = compound: COc1cc2ncnc(Nc3ccc(F)c(Cl)c3)c2cc1OCCCN1CCOCC1 [Gefitinib]; conditions: max 10 µM
# Procedure, shortened: as §1
# Prexasertib = compound: COc1cccc(OCCCN)c1-c1cc(Nc2cnc(C#N)cn2)n[nH]1 [Prexasertib]; conditions: max 1 µM
# Procedure, shortened: as §1
# Doxorubicin = compound: COc1cccc2c1C(=O)c1c(O)c3c(c(O)c1C2=O)C[C@@](O)(C(=O)CO)C[C@@H]3O[C@H]1C[C@H](N)[C@H](O)[C@H](C)O1 [Doxorubicin]; conditions: max 1 µM
# Procedure, shortened: as §1
# AZD5153 = compound: COc1nnc2ccc(N3CCC(c4ccc(OCCN5CCN(C)C(=O)[C@H]5C)cc4)CC3)nn12 [AZD5153]; conditions: max 1 µM
# Procedure, shortened: as §1
# Lapatinib = compound: CS(=O)(=O)CCNCc1ccc(-c2ccc3ncnc(Nc4ccc(OCc5cccc(F)c5)c(Cl)c4)c3c2)o1 [Lapatinib]; conditions: max 10 µM
# Procedure, shortened: as §1
# AZD8186 = compound: C[C@@H](Nc1cc(F)cc(F)c1)c1cc(C(=O)N(C)C)cc2c(=O)cc(N3CCOCC3)oc12 [AZD8186]; conditions: max 3 µM
# Procedure, shortened: as §1
# Crizotinib = compound: C[C@@H](Oc1cc(-c2cnn(C3CCNCC3)c2)cnc1N)c1c(Cl)ccc(F)c1Cl [Crizotinib]; conditions: max 10 µM
# Procedure, shortened: as §1
# Savolitinib = compound: C[C@@H](c1ccc2nccn2c1)n1nnc2ncc(-c3cnn(C)c3)nc21 [Savolitinib]; conditions: max 1 µM
# Procedure, shortened: as §1
# AZD6738 = compound: C[C@@H]1COCCN1C2=NC(=NC(=C2)C3(CC3)[S@](=N)(=O)C)C4=C5C=CNC5=NC=C4 [AZD6738]; conditions: max 10 µM
# Procedure, shortened: as §1
# AZD5991 = compound: Cc1c2c(nn1C)CSCc1cc(n(C)n1)CSc1cc(c3ccccc3c1)OCCCc1c(C(=O)O)n(C)c3c-2c(Cl)ccc13 [AZD5991]; conditions: max 1 µM
# Procedure, shortened: as §1
# AZD7648 = compound: Cc1cc2ncnn2cc1Nc1ncc2c(n1)n(C1CCOCC1)c(=O)n2C [AZD7648]; conditions: max 10 µM
# Procedure, shortened: as §1
# Taselisib = compound: Cc1nc(-c2cn3c(n2)-c2ccc(-c4cnn(C(C)(C)C(N)=O)c4)cc2OCC3)n(C(C)C)n1 [Taselisib]; conditions: max 10 µM
# Procedure, shortened: as §1
# Selumetinib = compound: Cn1cnc2c(F)c(Nc3ccc(Br)cc3Cl)c(C(=O)NOCCO)cc21 [Selumetinib]; conditions: max 10 µM
# Procedure, shortened: as §1
# MK-2206 = compound: NC1(c2ccc(-c3nc4ccn5c(=O)[nH]nc5c4cc3-c3ccccc3)cc2)CCC1 [MK-2206]; conditions: max 10 µM
# Procedure, shortened: as §1
# Olaparib = compound: O=C(c1cc(Cc2n[nH]c(=O)c3ccccc23)ccc1F)N1CCN(C(=O)C2CC2)CC1 [Olaparib]
# Procedure, shortened: as §1
Cell Line,"IC50, cell viability 72 h (Capivasertib) [µM]","IC50, cell viability 72 h (AZD1775) [µM]","IC50, cell viability 72 h (Trametinib) [µM]","IC50, cell viability 72 h (Palbociclib) [µM]","IC50, cell viability 72 h (AZD1390) [µM]","IC50, cell viability 72 h (Venetoclax) [µM]","IC50, cell viability 72 h (Dasatinib) [µM]","IC50, cell viability 72 h (SG3199) [µM]","IC50, cell viability 72 h (AZD2811) [µM]","IC50, cell viability 72 h (SN-38) [µM]","IC50, cell viability 72 h (AZD0156) [µM]","IC50, cell viability 72 h (AZD4320) [µM]","IC50, cell viability 72 h (Alisertib) [µM]","IC50, cell viability 72 h (Gefitinib) [µM]","IC50, cell viability 72 h (Prexasertib) [µM]","IC50, cell viability 72 h (Doxorubicin) [µM]","IC50, cell viability 72 h (AZD5153) [µM]","IC50, cell viability 72 h (Lapatinib) [µM]","IC50, cell viability 72 h (AZD8186) [µM]","IC50, cell viability 72 h (Crizotinib) [µM]","IC50, cell viability 72 h (Savolitinib) [µM]","IC50, cell viability 72 h (AZD6738) [µM]","IC50, cell viability 72 h (AZD5991) [µM]","IC50, cell viability 72 h (AZD7648) [µM]","IC50, cell viability 72 h (Taselisib) [µM]","IC50, cell viability 72 h (Selumetinib) [µM]","IC50, cell viability 72 h (MK-2206) [µM]","IC50, cell viability 72 h (Olaparib; max 10 µM) [µM]","IC50, cell viability 72 h (Olaparib; max 3 µM) [µM]"
A2058 (Melanoma),> 10,1.23,0.236,> 10,> 0.3,> 1,> 2,> 0.001,> 1,> 0.3,> 3,> 1,1.22,> 10,> 1,> 1,0.656,8.41,> 3,8.25,> 1,> 10,> 1,> 10,6.33,> 10,> 10,> 10,–
LN-229 (Glioblastoma),> 10,> 3,> 1,> 10,> 0.3,> 1,> 2,> 0.001,> 1,> 0.3,> 3,> 1,> 10,> 10,0.0701,> 1,> 1,> 10,> 3,> 10,> 1,> 10,> 1,> 10,> 10,> 10,> 10,> 10,–
LXF-289 (Lung Adenocarcinoma),> 10,0.814,> 1,> 10,> 0.3,> 1,0.171,> 0.001,> 1,> 0.3,> 3,> 1,3.39,> 10,0.24,> 1,0.377,4.86,> 3,4.53,> 1,> 10,> 1,> 10,> 10,> 10,–,> 10,–
NCI-H23 (Lung Adenocarcinoma),> 10,0.381,0.348,> 10,> 0.3,> 1,> 2,> 0.001,> 1,0.102,> 3,> 1,9.99,> 10,0.0596,> 1,0.208,> 10,> 3,5.95,> 1,3.27,0.319,> 10,> 10,> 10,> 10,> 10,–
NCI-H446 (Small Cell Lung Carcinoma),2.66,0.4,> 1,> 10,> 0.3,> 1,> 2,> 0.001,0.0428,0.0626,> 3,0.557,0.0548,> 10,0.0193,0.499,0.209,6.4,> 3,1.72,> 1,4.15,> 1,> 10,2.86,> 10,4.5,> 10,–
OAW-42 (Ovarian Carcinoma),> 10,> 3,> 1,> 10,> 0.3,> 1,0.909,–,> 1,0.0295,> 3,> 1,4.55,> 10,0.463,–,> 1,> 10,> 3,> 10,> 1,> 10,> 1,> 10,0.441,> 10,3,–,> 3
